The values below come from patent publication US7943606B2, “Compositions and methods to control abnormal cell growth” (CanCure Laboratories, LLC, priority 2005, dated 2011).

Data set [1] can be described thus: Viability of MRC-5 normal lung fibroblasts (MTT assay). In kind it is cell-based. The note with it: human. As to the method: (§1) To quantify cell death, around the time when significant and characteristic morphological changes took place, cells were pulse-labeled for 10 minutes with [^3H]thymidine to measure DNA activity as described elsewhere [Tomono, M. and Kiss, Z. (1995), “Ethanol enhances the stimulatory effects of insulin and insulin-like growth factor-I on DNA synthesis in NIH 3T3 fibroblasts,” Biochem. Biophys. Res. Commun. 208, 63-67]. Also, cells were collected as suspensions using trypsin, an established method in cell biology, followed by re-plating of cells in fresh tissue culture medium. If no viable cells were obtained after one week in culture, it meant that the cells at the time of re-plating were dead. Survival values obtained with untreated cells were considered 100%. For the determination of relative number of viable cells after treatments, in most cases the MTT assay was used. This calorimetric assay is based on the ability of living cells, but not dead cells, to reduce 3-(4,5-dimethyl thiazol-2-yl)-2,5-diphenyltetrazolium bromide [Carmichael, J, De Graff, W. G., Gazdar, A. F., Minna, J. D. and Mitchell, J. B. (1987), “Evaluation of tetrazolium-based semi-automated calorimetric assay: Assessment of chemosensitivity testing,” Cancer Res. 47, 936-942]. For this assay, cells were plated in 96-well plates, and the MTT assay was performed both in untreated and treated cell cultures. The MTT assay also was performed at the start of treatments to allow assessment of proliferation rates in the control and treated cell cultures.
(§2) The MRC-5 cell line is derived from normal lung tissue of a […] fetus. MRC-5 cells were maintained and treated in Eagles Medium with Hanks' BSS containing 10% fetal bovine serum. The T47D cells were maintained and treated in RPMI 1640 medium supplemented with 0.2 IU bovine insulin and 10% fetal bovine serum. The CaOV-3 human ovarian cancer cells were cultured in Dulbecco's modified Eagle's medium containing 10% fetal bovine serum. The cells were seeded in 96-well plates either at 10,000 cells per well or 30,000 cells per well to examine the antiproliferative and cytotoxic effects of various CC compounds, respectively. The cells were incubated for 24 hours, then the medium was changed followed by the treatments of cultures 2 hours after the medium change. At this point, cell cultures seeded at 10,000 cells per well and 30,000 cells per well were 25-35% and 80-90% confluent, respectively. Incubations were continued for 72 hours followed by the MTT assay. The data, shown in TABLE 2, indicate the inhibitory concentrations of CC compounds (IC50) required for 50% decrease in the number of viable cells. These numbers are calculated from the mean of 4 incubations in one experiment (the experiment was repeated once with similar results).

A further data set concerns MRC-5 cells. The description is as above. It counts as cell-based. The note with it: Homo sapiens, MRC5; 10,000 cells per well (25-35% confluent), 72 hours, MTT; read-out: IC50 values, Antiproliferative, MRC-5. As to the method:
as §1, §2

In the next data set the test system is T47D cells. In words: Viability of T47D breast cancer cells. Particulars: Homo sapiens, T47D, 72 hours, MTT. In kind it is cell-based, human. Here is the method:
as §1
About 40% confluent cultures of T47D cells, cultured in 12-well plates in RPMI 1640 medium supplemented with 0.2 IU bovine insulin and 10% FBS, were either untreated (FIG. 4A), or were treated with 100 μM CCDTHT (CCompound3) for 72 hours (FIG. 4B).
(§3) NIH3T3, T47D, A-431, HT-29, and MEL-28 cells were cultured as indicated earlier. CaOV-3 human ovarian cancer cells were cultured in DMEM containing 10% FBS. ZR-75-1 human estrogen receptor-positive breast cancer cells were maintained in RPMI 1640 medium supplemented with 10% FBS. HTB-157 human fetal fibroblasts, MEL-24 human malignant melanoma cells, Hep G2 human hepatoblastoma cells, and CaCO-2 human colon adenocarcinoma cells were maintained in Eagles's MEM containing 10% FBS. MB-231 human estrogen receptor-negative breast cancer cells were maintained in Leibovitz's L-15 medium supplemented with 10% FBS. Cells were seeded into 96-well plates and treated at ˜70-90% confluency. Two hours prior to treatments the medium was changed for fresh 10% serum medium, and then the cells were incubated for 10 days in the absence (□) or presence of 50 μM CCDTHT ? or 100 μM CCDTHT (▪). The medium was changed and the cells were re-treated on days 3 and 6. The MTT assay was used to determine cell viability on day 10. The data, shown in FIG. 6, are the mean±std. dev. of 8 incubations in one experiment.
as §2, with “respectively.” for “respectively. Incubations were continued for 72 hours followed by the MTT assay. The data, shown in TABLE 2, indicate the inhibitory concentrations of CC compounds (IC50) required for 50% decrease in the number of viable cells. These numbers are calculated from the mean of 4 incubations in one experiment (the experiment was repeated once with similar results).”

For a further data set, the system named is CaOV-3 cells. In words: Viability of CaOV-3 ovarian cancer cells (MTT assay). It counts as cell-based, human. Particulars: Homo sapiens, Caov-3, 72 hours, MTT. Here is the method:
as §1
as §3, with “experiment. (The experiment was repeated twice with similar results).” for “experiment.”
as §2, with “results). […]” for “results).”

Another data set concerns MCF-7 cells. Kind of data set: Viability of MCF-7 breast cancer cells. It counts as cell-based, human. Particulars: 2 mM Etn + 100 μM CCDTHT, 72 hours, MTT. Here is the method:
as §1
About 50% confluent cultures of MCF-7 cells, cultured in 12-well plates in Dulbecco's modified Eagle's medium (DMEM) supplemented with 10% FBS, were either untreated (FIG. 3A), or were treated with 100 μM CCDTHT (CCompound3) for 72 hours (FIG. 3B). […] This experiment was repeated three times with similar results. In some experiments, cells from the CCDTHT-treated cultures were seeded into 96-well plates, and the MTT assay was performed 96 hours later to test for viable cells.
The NIH 3T3 (normal) mouse fibroblast, A431 human epidermoid adenocarcinoma, and MCF-7 human breast cancer cells were cultured in DMEM medium containing 10% FBS. The MEL-28 human melanoma cells were cultured in MEM medium containing 10% FBS. The HT-29 human colon adenocarcinoma cells were cultured in McCoy's 5a medium containing 10% FBS. The A549 human lung carcinoma cells were maintained in Ham's F12K medium containing 10% FBS. Cells were seeded into 96-well plates and treated at ˜70-90% confluency. Two hours before treatments the medium was changed for fresh 10% serum medium, and then the cells were incubated for 72 hours in the presence of 0-200 μM of CCompound1 (●) or CCompound3 (CCDTHT) (▴), as indicated. The MTT assay was used to determine cell viability after treatments. The values, shown in FIGS. 5A-5F and expressed as percent decrease in viability compared to the untreated control cells, are the mean±std. dev. of 8 incubations in one experiment. Similar results were obtained in another experiment.
NIH 3T3, AN3CA, HT-29, MEL-28, and MCF-7 cells were cultured as described earlier. Cells were seeded into 96-well plates; when cells were ˜80-90% confluent, the medium was changed for fresh 10% serum-containing medium, followed by incubations for 72 hours in the absence (□) or presence of 100 μM CCDTHT ? , 2 mM ethanolamine (Etn) ? , or 100 μM CCDTHT+2 mM Etn (▪). The MTT assay was used to determine cell viability. […]

Setting [2] is: MRC-5 normal lung fibroblasts, 30,000 cells per well (80-90% confluent), 72 hours, MTT, read-out: IC50 values, Cytotoxic, MRC-5.
Where [3] appears, read: 10,000 cells per well (25-35% confluent), read-out: IC50 values, Antiproliferative, T47D.
Setting [4] is: 30,000 cells per well (80-90% confluent), read-out: IC50 values, Cytotoxic, T47D.
Where [5] appears, read: 10,000 cells per well (25-35% confluent), read-out: IC50 values, Antiproliferative, CaOV-3.
Setting [6] is: 30,000 cells per well (80-90% confluent), read-out: IC50 values, Cytotoxic, CaOV-3.

pIC50: −log10 of the molar value. Like-named read-outs stand apart in the source and are kept apart here.

`Cc1ccc2c(c1)/C(=C\CC[N+](C)(C)C)c1ccccc1S2` [CCcompound21, N,N,N-trimethyl-3-(2-methyl-9H-thioxanthen-9-ylidene)-propane-1-aminium iodide]: the IC50 at 72 h in data set [1] (setting [2]) is 164 µM. The pIC50 in the data set with MRC-5 cells is 3.95; in the data set with T47D cells (setting [3]), 4.12; with T47D cells (setting [4]) it was 4.23; with CaOV-3 cells (setting [5]), 4.49; with CaOV-3 cells (setting [6]), 4.54.
In the case of `CC[N+](C)(C)CC/C=C1/c2ccccc2Sc2ccc(C)cc21` [CCcompound22, N,N-Dimethyl-N-ethyl-3-(2-methyl-9H-thioxanthen-9-ylidene)-propane-1-aminium iodide], the IC50 at 72 h in data set [1] (setting [2]) turned out to be 215 µM. Further, the pIC50 with MRC-5 cells was 3.85; in the data set with T47D cells (setting [3]), 4.19; with T47D cells (setting [4]), 4.19; with CaOV-3 cells (setting [5]) it was 4.21; in the data set with CaOV-3 cells (setting [6]), 4.44.
For the compound `CC[N+](C)(CC)CC/C=C1/c2ccccc2Sc2ccc(C)cc21` [CCcompound23, N,N-Diethyl-N-methyl-3-(2-methyl-9H-thioxanthen-9-ylidene)-propane-1-aminium iodide], in data set [1] (setting [2]), the IC50 at 72 h came to 163 µM. Also, the pIC50 with MRC-5 cells was 3.86; with T47D cells (setting [3]), 4.32; in the data set with T47D cells (setting [4]), 4.42; with CaOV-3 cells (setting [5]), 4.85; in the data set on CaOV-3 cells (setting [6]), 4.49.
In turn, `C=CC[N+](C)(C)CC/C=C1/c2ccccc2Sc2ccc(C)cc21` [CCcompound24, N,N-Dimethyl-N-allyl-3-(2-methyl-9H-thioxanthen-9-ylidene)-propane-1-aminium bromide] displayed an IC50 at 72 h in data set [1] of 207 µM. Besides, the pIC50 with MRC-5 cells is 3.95; with T47D cells (setting [3]), 4.25; in the data set with T47D cells (setting [4]), 4.23; in the data set with CaOV-3 cells (setting [5]) it was 4.16; in the data set on CaOV-3 cells (setting [6]), 4.54.
As for `CC[N+](CC)(CC)CC/C=C1/c2ccccc2Sc2ccc(C)cc21` [CCcompound25, N,N,N-triethyl-3-(2-methyl-9H-thioxanthen-9-ylidene)-propane-1-aminium-iodide], in data set [1] (setting [2]), the IC50 at 72 h was found to be 123 µM. Also, the pIC50 with MRC-5 cells was 3.93; in the data set on T47D cells (setting [3]), 4.74; in the data set on T47D cells (setting [4]), 4.41; in the data set with CaOV-3 cells (setting [5]) it was 4.33; in the data set on CaOV-3 cells (setting [6]) it was 4.18.
In data set [1], `C=CC[N+](CC)(CC)CC/C=C1/c2ccccc2Sc2ccc(C)cc21.[Br-]` [CCcompound26, N,N-diethyl-N-allyl-3-(2-methyl-9H-thioxanthen-9-ylidene)-propane-1-aminium-bromide] displayed an IC50 at 72 h of 98 µM. In addition, the negative-log IC50 (pIC50) in the data set on MRC-5 cells was 4.07; in the data set on T47D cells (setting [3]) it was 4.96; in the data set on T47D cells (setting [4]), 5.10; with CaOV-3 cells (setting [5]), 4.24; with CaOV-3 cells (setting [6]) it was 4.23.
As to `NCCO` [Etn, ethanolamine, reference compound], in the data set with MCF-7 cells, the “effect of Etn on CCDTHT-induced reduction in cell viability, MCF-7” value is “clearly prevented”.
